Data on 4 molecules can be found in patent publication US20260306460A1, “COMPOSITION FOR REMOVING AND INHIBITING SENESCENT CELLS, AND USES THEREOF” (LIFECEUTIX CO., LTD., priority 2023, published 2026).

What all share (type): in vivo, mouse
The test system of test [1] is doxorubicin-induced aged C57BL6J mice. Put plainly: Kidney damage (urea, creatinine, Agtr1a mRNA) in doxorubicin-aged mice, Example 22-9, Table 38. The settings on record: amount after aging calculated as 100%; for Creatinine / Urea: serum. The method, then:
Eight-week-old male C57BL6J mice (KRIBB Laboratory Animal Resource Center) were acclimated to the experimental environment for one week. Afterwards, the anticancer agent doxorubicin was administered intraperitoneally at a concentration of 10 mg/kg, inducing aging for more than 10 days. The aging-induced mice were randomly assigned to experimental and control groups. LX-403 was mixed with a 10% ethanol solution of PEG400 and administered orally at a concentration of 25 mg/kg or intradermally at a concentration of 1 μM for 21 days. LX-1801 was mixed in distilled water with 4% DMSO, 30% PEG300, and 5% Tween80 and administered intradermally at a concentration of 0.4 μM daily for 21 days. LX-2001 was mixed in PBS and administered intradermally at a concentration of 2 μM daily for 21 days. LX-2002 was mixed in distilled water with 4% DMSO, 30% PEG300, and 5% Tween80 and administered intradermally at a concentration of 2 μM daily for 21 days. […] LX-2005 was mixed in distilled water with 4% DMSO, 30% PEG300, and 5% Tween80 and administered intradermally at a concentration of 90 μM daily for 21 days. LX-2007 was mixed in distilled water with 4% DMSO, 30% PEG300, and 5% Tween80 and administered intradermally at a concentration of 90 μM daily for 21 days. […] LX-3002 was mixed in distilled water with 4% DMSO, 30% PEG300, and 5% Tween80 and administered orally at a concentration of 10 mg/kg daily for 21 days. […] LX-5411 was mixed in 5% phosphate-buffered saline (PBS) and administered orally at a concentration of 10 mg/kg daily for 21 days or intradermally at a concentration of 3 μM. LX-5701 was mixed in PBS and administered orally at a concentration of 360 mg/kg daily for 21 days. LX-6807 was mixed in saline and administered intraperitoneally at a concentration of 1 mg/kg daily for 21 days. The control group received only the solution in the same volume. After the end of drug administration, the methods described in each example below were performed.
The amounts of urea and creatinine, markers of kidney damage, were measured spectrophotometrically in serum collected from mice using the same method as in Examples 7-8 of WO2023-085787 A1. […] The amount of each factor after aging was calculated as 100% and compared with the amount of each factor after treatment with the test compound.

For test [2], the system named is obesity-induced aged C57BL6J mice. The test can be described thus: Diabetes and complications (HbA1c, wound size, VEGF mRNA) in obesity-aged mice, Example 23-6, Table 46. The settings on record: for VEGF mRNA: eye, qRT-PCR, amount after aging calculated as 100%; for diabetic foot ulcer size: full-thickness 5 mm×5 mm wound, untreated 4.2 (±0.4); for diabetic foot ulcer size / HbA1c: obesity-induced diabetes mice; for HbA1c: serum, daily for 21 days, untreated 6.9 (±1.5). As for the experimental part:
15-week-old male C57BL6J mice (The Jackson Laboratory) were induced to obesity by a high-fat diet using the same method as in Example 9-1 WO2023-085787 A1. After acclimation to the experimental environment for one week, the mice were randomly assigned to experimental and control groups. […] LX-3002 was mixed in distilled water with 4% DMSO, 30% PEG300, and 5% Tween80 and administered orally at a concentration of 10 mg/kg daily for 21 days. LX-5701 was mixed in PBS and administered orally at a concentration of 360 mg/kg daily for 21 days. LX-6807 was mixed in saline and administered intraperitoneally at a concentration of 1 mg/kg daily for 21 days. The control group received only the solution in the same volume. After the end of drug administration, the methods described in each example below were performed.
Serum collected from mice using the same method as in Example 7-5 of WO2023-085787 A1 was used to measure glycated hemoglobin (HbA1c), a marker of hyperglycemia and diabetes. Furthermore, the improvement in diabetic foot ulcers and diabetic retinopathy, major complications of diabetes, was analyzed. Specifically, a diabetic foot ulcer model was created by creating a full-thickness 5 mm×5 mm wound on the left dorsal skin of mice induced with obesity-induced diabetes. The wound size was measured under untreated and treated conditions with the test compound, and the healing effect was analyzed. In addition, the mRNA amount of VEGF, a marker of angiogenesis in retinopathy, was measured from the eye using qRT-PCR as described in Example 7-2 of WO2023-085787 A1. The qRT-PCR results were calculated as 100% for the amount of each factor after aging was induced, and compared with the amount of each factor after treatment with the test compound.

Test [3] has as its system bleomycin-induced pulmonary fibrosis C57BL6J mice. The test can be described thus: Bleomycin pulmonary fibrosis in mice (p16, IL6, Col1a1 mRNA, alveoli size), Example 24-1, Table 47. The settings on record: for Airspace enlargement: average size of alveoli, untreated 39.8 (±0.4); for Col1a1 mRNA / IL6 mRNA / p16 mRNA: lung, daily for 21 days, untreated 100%. The method, then:
Eight-week-old male C57BL6J mice (KRIBB Laboratory Animal Resource Center) were acclimated to the experimental environment for one week. They were then administered the anticancer drug bleomyxin via intratracheal inhalation at a concentration of 2.5 mg/kg, inducing aging for more than 10 days. The aging-induced mice were randomly assigned to experimental and control groups. […] LX-3002 was mixed in distilled water with 4% DMSO, 30% PEG300, 5% tween80 and administered orally at a concentration of 10 mg/kg daily for 21 days. LX-5701 was mixed in PBS and administered orally at a concentration of 360 mg/kg daily for 21 days. LX-6807 was mixed in saline and administered intraperitoneally at a concentration of 1 mg/kg daily for 21 days. The control group received only the solution in the same volume. After the end of drug administration, mice were sacrificed in the same manner as in Example 7-2 of WO2023-085787 A1, RNA was extracted from lung tissue, and qRT-PCR (quantitative real-time PCR) was performed and analyzed using the synthesized cDNA. […] The amount of mRNA after aging was calculated as 100%, and the results after treatment with the test compound were compared. Furthermore, paraffin sections were stained with hematoxylin/eosin (H/E), and the size of alveoli was measured under an optical microscope to assess the degree of lung function impairment due to pulmonary fibrosis.

In the case of `CCCC\C=C/C=C/C=C\CCCCCCCC(=O)O` [LX-2707, Punicic acid], in test [1], the “Agtr1a mRNA” value was 62 (±3.8) %, the Creatinine is 75 (±5.3) % and the Urea is given as 80 (±3.3) %. Moreover, in test [2], the “VEGF mRNA” value is listed as 76 (±4.0) %, the “diabetic foot ulcer size” value is 3.4 (±0.3) mm and the HbA1c is on record as 6.1 (±0.6) %. In addition, in test [3], the Airspace enlargement is recorded as 35.4 (±1.8) μm, the “Col1a1 mRNA” value is recorded as 70 (±6.5) %, the “IL6 mRNA” value is listed as 38 (±4.1) % and the “p16 mRNA” value is 43 (±4.2) %.
`O=C1C2CCN(CC2)C1CNC(=O)C(F)(F)F` (stereo not shown) [LX-5701]: in test [1], the “Agtr1a mRNA” value is 60 (±10.4) %, the Creatinine was 80 (±5.0) % and the Urea is recorded as 75 (±5.9) %. In test [2], the “VEGF mRNA” value is on record as 61 (±10.6) %, the “diabetic foot ulcer size” value is reported as 3.0 (±0.9) mm and the HbA1c was 5.0 (±1.3) %. In test [3], the Airspace enlargement was 30.1 (±2.7) μm, the “Col1a1 mRNA” value is reported as 52 (±13.9) %, the “IL6 mRNA” value is on record as 59 (±13.2) % and the “p16 mRNA” value is listed as 65 (±7.1) %.
For Tocofersolan [LX-3001], in test [1], the “Agtr1a mRNA” value is 70 (±5.8) %, the Creatinine was 85 (±4.4) % and the Urea was 76 (±2.8) %. In test [2], the “VEGF mRNA” value is 77 (±2.4) %, the “diabetic foot ulcer size” value was 3.5 (±0.2) mm and the HbA1c is reported as 6.4 (±0.4) %. For the same molecule, in test [3], the Airspace enlargement was 36.2 (±2.2) μm, the “Col1a1 mRNA” value is given as 64 (±3.9) %, the “IL6 mRNA” value is reported as 51 (±3.6) % and the “p16 mRNA” value is listed as 65 (±3.8) %.
With `Cc1cccc([C@H](C)c2cnc[nH]2)c1C` [LX-6807, Dexmedetomidine], in test [1], the “Agtr1a mRNA” value is recorded as 43 (±3.0) %, the Creatinine is listed as 73 (±2.7) % and the Urea was 72 (±5.8) %. Further, in test [2], the “VEGF mRNA” value was 68 (±1.6) %, the “diabetic foot ulcer size” value was 3.3 (±0.5) mm and the HbA1c is on record as 5.4 (±0.5) %. Moreover, in test [3], the Airspace enlargement is recorded as 33.8 (±3.6) μm, the “Col1a1 mRNA” value is on record as 56 (±3.6) %, the “IL6 mRNA” value was 48 (±2.4) % and the “p16 mRNA” value is 54 (±1.9) %.
